Source: patent publication US9242984B2, “Pyrazolyl derivatives as Syk inhibitors” (Merck Sharp & Dohme Corp., priority 2012, dated 2016)
pIC50: −log10 of the molar value. Read-outs that look alike come from different tables or passages of the source.

Biological target: T1, recombinant human Syk (GST-hSyk fusion protein) (Homo sapiens, UniProt P43405)
T1 construct: purchased Carna Biosciences 08-176
Assay: Homogeneous Time-Resolved Fluorescence (HTRF) assay for the recombinant human Syk enzyme
Type: biochemical
Conditions: 10-dose titration, 25 μM ATP
Method in brief: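 IC50 came from a four-parameter fit over ten doses, 10 μM to 0.508 nM, with HTRF read-out (Eu-anti-pTyr antibody, SA-APC, EDTA stop, 30 min). The enzyme, 5 pM GST-hSyk, met compound for 10 min, then phosphorylated 250 nM biotin-peptide with 25 μM ATP and 5 mM Mg for 45 min at room temperature, pH 7.5.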

[1] = IC50 class, read-out: rhSYK Activity

Work on `Cc1cc(Nc2ncc(F)c(C(F)F)n2)cc(-c2cnn([C@@H]3CCC[C@@H](O)[C@H]3O)c2)c1` (single isomer, unassigned) [Example 10.11, 3-[4-(3-{[4-(difluoromethyl)-5-fluoro-pyrimidin-2-yl]amino}-5-methylphenyl)-1H-pyrazol-1-yl]cyclohexane-1,2-diol] yielded a pIC50 (read-out: rhSYK IC50) of 8.46 and a pIC50 [1] of at least 7.00.
With `COc1nc(Nc2cc(C)cc(-c3cnn(CCC(N)=O)c3)c2)ncc1F` [Example 2.11, 3-(4-{3-[(5-fluoro-4-methoxypyrimidin-2-yl)amino]-5-methylphenyl}-1H-pyrazol-1-yl)propanamide] the pIC50 [1] was at least 7.00.
`Cc1cc(-c2cnn(CC(O)CF)c2)cc(N(CC(O)CF)c2nccc(C(F)(F)F)n2)c1` (racemic) [Example 5.13, 1-fluoro-3-({3-[1-(3-fluoro-2-hydroxy-propyl)-1H-pyrazol-4-yl]-5-methyl-phenyl}-[4-(trifluoromethyl)-pyrimidin-2-yl]-amino)propan-2-ol] gave a pIC50 [1] of 6.00 to 7.00.
`Cc1cc(Nc2nccc(C(F)(F)F)n2)cc(-c2cnn(CC3(O)CCOC(C)(C)C3)c2)c1` (stereo not shown) [Example 12.10, 2,2-dimethyl-4-{[4-(3-methyl-5-{[4-(trifluoro-methyl)pyrimidin-2-yl]amino}phenyl)-1H-pyrazol-1-yl]methyl}-tetrahydro-2H-pyran-4-ol] gave a pIC50 [1] of at least 7.00.
`Cc1cc(Nc2cc(C(F)(F)F)ccn2)nc(-c2cnn(CC(O)c3ccc(C(N)=O)cc3)c2)c1` (stereo not shown) [Example 6.16, 4-{1-hydroxy-2-[4-(4-methyl-6-{[4-(trifluoromethyl)-pyridin-2-yl]amino}-pyridin-2-yl)-1H-pyrazol-1-yl]ethyl}-benzamide] gave a pIC50 [1] of at least 7.00.
In the case of `Cc1cc(Nc2nccc(C(F)(F)F)n2)cc(-c2cnn(C3CCCC(O)C3O)c2)c1` (stereo not shown) [Example 10.2, 3-[4-(3-methyl-5-{[4-(trifluorometh-yl)pyrimidin-2-yl]amino}phen-yl)-1H-pyrazol-1-yl]cyclohexane-1,2-diol], the pIC50 [1] was at least 7.00.
`Cc1cc(Nc2nccc(C(F)(F)F)n2)cc(-c2cnn(CC3NC(=O)OC3C)c2)c1` (stereo not shown) [Example 3.129, 5-methyl-4-{[4-(3-methyl-5-{[4-(trifluoromethyl)pyrimidin-2-yl]amino}phenyl)-1H-pyrazol-1-yl]methyl}-1,3-oxazolidin-2-one] gave a pIC50 [1] of at least 7.00.
`Cc1cc(Nc2nccc(C(F)(F)F)n2)cc(-c2cnn(CCC3CCCN3)c2)c1` (stereo not shown) [Example 13.2, N-{3-methyl-5-[1-(2-pyrrolidin-2-ylethyl)-1H-pyrazol-4-yl]phenyl}-4-(trifluoro-methyl)-pyrimidin-2-amine] was tested, and the pIC50 [1] was at least 7.00.
In the case of `Cc1cc(Nc2nccc(C(F)(F)F)n2)cc(-c2cnn(CC(C)(O)CO)c2)c1` (single isomer, unassigned) [Example 21.2, 2-Methyl-3-(4-(3-methyl-5-((4-(trifluoromethyl)pyrimidin-2-yl)amino)phenyl)-1H-pyrazol-1-yl)propane-1,2-diol], the pIC50 [1] was at least 7.00.
Compound `CCOC(=O)CCn1cc(-c2cc(C)cc(Nc3nccc(C(F)(F)F)n3)c2)cn1` [Example 2.43, ethyl 3-[4-(3-methyl-5-{[4-(trifluoromethyl)pyrimidin-2-yl]amino}phenyl)-1H-pyrazol-1-yl]propanoate] has a pIC50 [1] of at least 7.00.
With `Cc1cc(Nc2nccc(C(F)F)n2)cc(-c2cn[nH]c2)c1` [Example 1.65, 4-(difluoromethyl)-N-[3-methyl-5-(1H-pyrazol-4-yl)phenyl]pyrimidin-2-amine] the pIC50 [1] was at least 7.00.
`COC(=O)C(C)n1cc(-c2cc(C)cc(Nc3nccc(C(F)(F)F)n3)c2)cn1` (stereo not shown) [Example 3.29, methyl 2-[4-[3-methyl-5-{[4-(trifluoromethyl)-pyrimidin-2-yl]amino}-phenyl)-1H-pyrazol-1-yl]propanoate] showed a pIC50 [1] of at least 7.00.
For `Cc1cc(Nc2nccc(C(F)F)n2)cc(-c2cnn(CC(C)(C)N)c2)c1` [Example 2.85, N-{3-[1-(2-amino-2-methylpropyl)-1H-pyrazol-4-yl]-5-methylphenyl}-4-(difluoromethyl)pyrimidin-2-amine], the pIC50 [1] was at least 7.00.
In the case of `Cc1cc(Nc2nccc(C(F)(F)F)n2)cc(-c2cnn(CC3NC(=O)OC3C)c2)c1` (stereo not shown) [Example 3.128, 5-methyl-4-{[4-(3-methyl-5-{[4-(trifluoromethyl)pyrimidin-2-yl]amino}phenyl)-1H-pyrazol-1-yl]methyl}-1,3-oxazolidin-2-one], the pIC50 [1] was at least 7.00.
In the case of `Cc1cc(Nc2nccc(C(F)F)n2)cc(-c2cnn(CC3OC(=O)NC3(C)C)c2)c1` (stereo not shown) [Example 3.102, 5-{[4-(3-{[4-(difluoromethyl)pyrimidin-2-yl]amino}-5-methylphenyl)-1H-pyrazol-1-yl]methyl}-4,4-dimethyl-1,3-oxazolidin-2-one], the pIC50 [1] was at least 7.00.
Work on `CC(=O)Nc1cc(Nc2nccc(C(F)(F)F)n2)cc(-c2cnn(C3CCC(C(=O)O)CC3)c2)c1` (stereo not shown) [Example 1.52, 4-{4-[3-(acetylamino)-5-{[4-(trifluoromethyl)pyrimidin-2-yl]amino}phenyl]-1H-pyrazol-1-yl}cyclohexanecarboxylic acid] yielded a pIC50 [1] of at least 7.00.
`Cc1cc(Nc2nccc(C(F)(F)F)n2)cc(-c2ccnn2C(C)C)c1` [Example 1.8, N-{3-methyl-5-[1-(1-methylethyl)-1H-pyrazol-5-yl]phenyl}-4-(trifluoromethyl)pyrimidin-2-amine] was tested, and the pIC50 [1] was 6.00 to 7.00.
“5-{[4-(3-{[4-(1,1-difluoromethyl)pyrimidin-2-yl]amino}-5-methylphenyl)-1H-pyrazol-1-yl]methyl}-4-methyl-1,3-oxazolidin-2-one [Example 23.11]” was tested, and the pIC50 [1] was at least 7.00.
Work on `Cc1cc(Nc2nccc(C)n2)cc(-c2cnn(CC3CNC(=O)O3)c2)c1` (stereo not shown) [Example 2.31, 5-[(4-{3-methyl-5-[(4-methylpyrimidin-2-yl)amino]phenyl}-1H-pyrazol-1-yl)methyl]-1,3-oxazolidin-2-one] yielded a pIC50 [1] of at least 7.00.
`Cc1cc(Nc2nccc(C(F)(F)F)n2)cc(-c2cnn(C(C)C(C)(O)CO)c2)c1` (single isomer, unassigned) [Example 21.9, 2-methyl-3-[4-(3-methyl-5-{[4-(trifluoromethyl)pyrimidin-2-yl]amino}phenyl)-1H-pyrazol-1-yl]butane-1,2-diol] was tested, and the pIC50 [1] was at least 7.00.
`Cc1cc(Nc2nccc(C(F)F)n2)cc(-c2cnn(CC(C)(O)C(C)(C)O)c2)c1` (stereo not shown) [Example 21.6, 1-[4-(3-{[4-(difluoromethyl)pyrimidin-2-yl]amino}-5-methylphenyl)-1H-pyrazol-1-yl]-2,3-dimethylbutane-2,3-diol] gave a pIC50 [1] of at least 7.00.
Compound `Cc1cc(Nc2nccc(C(F)F)n2)cc(-c2cnn(C3CCCC(O)C3O)c2)c1` (single isomer, unassigned) [Example 10.4, 3-[4-(3-{[4-(difluoromethyl)pyrimidin-2-yl]amino}-5-methylphenyl)-1H-pyrazol-1-yl]cyclohexane-1,2-diol] has a pIC50 (read-out: rhSYK IC50) of 8.43 and a pIC50 [1] of at least 7.00.
With `Cc1cc(Nc2nccc(C(F)F)n2)cc(-c2cnn(CC3CC(=O)NC34CC4)c2)c1` (stereo not shown) [Example 3.89, 7-{[4-(3-{[4-(difluoromethyl)pyrimidin-2-yl]amino}-5-methylphenyl)-1H-pyrazol-1-yl]methyl}-4-azaspiro[2.4]heptan-5-one] the pIC50 [1] was at least 7.00.
Work on `Cc1cc(Nc2nccc(C(F)F)n2)cc(-c2cnn(CC(C)(C)NS(=O)(=O)N3CCOCC3)c2)c1` [Example 27.6, N-{2-[4-(3-{[4-(difluoromethyl)pyrimidin-2-yl]amino}-5-methylphenyl)-1H-pyrazol-1-yl]-1,1-dimethylethyl}morpholine-4-sulfonamide] yielded a pIC50 [1] of at least 7.00.
With `Cc1cc(Nc2nccc(C(C)(F)F)n2)cc(-c2cnn(CC(C)(O)C(C)(C)O)c2)c1` (stereo not shown) [Example 22.5, 1-[4-(3-{[4-(1,1-difluoroethyl)pyrimidin-2-yl]amino}-5-methylphenyl)-1H-pyrazol-1-yl]-2,3-dimethylbutane-2,3-diol] the pIC50 [1] was at least 7.00.
Work on `Cc1cc(Nc2nccc(C(F)F)n2)cc(-c2cnn(C3CC(C)(C)CC(C)(O)C3O)c2)c1` (stereo not shown) [Example 22.10] yielded a pIC50 (read-out: rhSYK IC50) of 8.17 and a pIC50 [1] of at least 7.00.
`Cc1cc(Nc2cc(C(F)F)ccn2)nc(-c2cnn(C(C)C3CNC(=O)C3)c2)c1` (stereo not shown) [Example 1.64, 4-{1-[4-(6-{[4-(difluoromethyl)pyridin-2-yl]amino}-4-methylpyridin-2-yl)-1H-pyrazol-1-yl]ethyl}pyrrolidin-2-one] gave a pIC50 [1] of at least 7.00.
`CCOC(=O)C(O)Cn1cc(-c2cc(C)cc(Nc3nccc(C(F)F)n3)c2)cn1` (stereo not shown) [Example 5.20, ethyl 3-[4-(3-{[4-(difluoromethyl)pyrimidin-2-yl]amino}-5-methylphenyl)-1H-pyrazol-1-yl]-2-hydroxypropanoate] showed a pIC50 [1] of at least 7.00.
For `Cc1cc(Nc2cc(C(F)(F)F)ccn2)nc(-c2cnn(CC(=O)O)c2)c1` [Example 1.31, [4-(4-methyl-6-{[4-(trifluoromethyl)pyridin-2-yl]amino}pyridin-2-yl)-1H-pyrazol-1-yl]acetic acid], the pIC50 [1] was at least 7.00.
Work on `Cc1cc(Nc2nccc(C(F)(F)F)n2)cc(-n2ccc(Cl)n2)c1` [19.9] yielded a pIC50 [1] of 6.00 to 7.00.
Work on `Cc1cc(Nc2nccc(C(F)(F)F)n2)cc(-c2cnn(CCCN)c2)c1` [Example 3.20, N-{3-[1-(3-aminopropyl)-1H-pyrazol-4-yl]-5-methylphenyl}-4-(trifluoromethyl)pyrimidin-2-amine] yielded a pIC50 [1] of at least 7.00.
With `Cc1cc(Nc2nccc(C(F)(F)F)n2)cc(-c2cnn(C3CCOC3=O)c2)c1` (stereo not shown) [Example 3.17, 3-[4-(3-methyl-5-{[4-(trifluoromethyl)pyrimidin-2-yl]amino}-phenyl)-1H-pyrazol-1-yl]dihydrofuran-2(3h)-one] the pIC50 [1] was at least 7.00.
`Cc1cc(Nc2nccc(C(F)(F)F)n2)cc(-c2cnn(CC(C)(O)CC#N)c2)c1` (stereo not shown) [Example 20.2, 3-hydroxy-3-methyl-4-[4-(3-methyl-5-{[4-(trifluoromethyl)pyrimidin-2-yl]amino}phenyl)-1H-pyrazol-1-yl]butanenitrile] showed a pIC50 [1] of at least 7.00.
Work on `Cc1cc(Nc2nccc(C(F)F)n2)cc(-c2cnn(CCc3cn[nH]c3)c2)c1` [Example 3.111, 4-(difluoromethyl)-N-(3-methyl-5-{1-[2-(1H-pyrazol-4-yl)ethyl]-1H-pyrazol-4-yl}phenyl)pyrimidin-2-amine] yielded a pIC50 [1] of at least 7.00.
